Columns and labels:
[1] = system: root-knot nematode of watermelon (西瓜根结线虫); assay: Field trial: control of watermelon root-knot nematode (Example 7); format: in vivo; conditions: 0.25 g/plant, hole application at transplanting; assessed 2 d before harvest, five-point sampling, 10 plants per field
[2] = system: other diseases and pests and non-target organisms (其他病虫害及非靶标生物); assay: Safety evaluation: effect on other diseases/pests and non-target organisms (Example 7); format: in vivo; conditions: 0.25 g/plant, hole application at transplanting
watermelon (西瓜) = assay: Watermelon yield after treatment (Example 8); format: in vivo; conditions: 0.25 g/plant at transplanting
plants (植株) = conditions: background statement; cited from earlier work

Which results are given for `CC[C@H](C)[C@H]1O[C@@]2(C[C@@H]3C[C@@H](C/C=C(\C)[C@@H](O[C@H]4C[C@H](OC)[C@@H](O[C@H]5C[C@H](OC)[C@@H](O)[C@H](C)O5)[C@H](C)O4)[C@@H](C)/C=C/C=C4\CO[C@@H]5[C@H](O)C(C)=C[C@@H](C(=O)O3)[C@]45O)O2)C[C@H](O)[C@@H]1C` [阿维菌素B2a]?
control effect [1]: 83.32%; effect on other diseases/pests and non-target organisms [2]: 无不良影响; single fruit weight (watermelon (西瓜); 3 watermelons per field, blank field 5.98): 7.01 kg; converted yield (watermelon (西瓜); converted from weighing 3 watermelons per field, blank field 38967.4): 47784.9 kg·hm-2; growth rate relative to blank field (yield increase) (watermelon (西瓜); versus blank field): 22.62%; phytotoxicity in individual plants (plants (植株)): 会使个别植株出现黄化、烧根等现象

Reference: patent publication CN109762015A, “一种阿维菌素B2a磷酸化修饰物及其制备方法和应用” (HEBEI MEIHE PHARMACEUTICAL Co Ltd, priority 2019, dated 2019)
